{"source": "paper PMC10215199", "about": "(Antioxidants, 2023)", "key": {"MAO-B": {"tested_on": "MAO-B", "details": "cited from earlier work"}, "AChE": {"tested_on": "AChE", "parameters": "method as in PMID 31891098", "details": "chromone-based compound 1, Figure 1; cited from earlier work"}, "recombinant human MAO-A": {"biological_target": "T1, recombinant human MAO-A (Homo sapiens, UniProt P21397)", "T1 sequence (P21397 1-527)": "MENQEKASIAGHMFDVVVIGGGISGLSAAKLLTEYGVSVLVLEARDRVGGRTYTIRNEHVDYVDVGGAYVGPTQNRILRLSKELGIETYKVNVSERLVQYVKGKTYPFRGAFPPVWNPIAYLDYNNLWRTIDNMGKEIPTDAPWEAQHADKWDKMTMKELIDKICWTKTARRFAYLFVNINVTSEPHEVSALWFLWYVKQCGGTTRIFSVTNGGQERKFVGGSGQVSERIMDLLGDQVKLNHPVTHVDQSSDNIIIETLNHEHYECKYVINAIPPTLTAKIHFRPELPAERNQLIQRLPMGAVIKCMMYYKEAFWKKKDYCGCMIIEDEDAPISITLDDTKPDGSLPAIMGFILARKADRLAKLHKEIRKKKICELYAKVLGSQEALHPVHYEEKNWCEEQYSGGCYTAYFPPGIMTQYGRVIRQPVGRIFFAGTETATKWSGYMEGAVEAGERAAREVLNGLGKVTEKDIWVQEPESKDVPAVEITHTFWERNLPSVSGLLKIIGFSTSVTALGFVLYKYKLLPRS", "assay": "Monoamine oxidase-A inhibition assay (Amplex red fluorescence)", "format": "biochemical", "details": "for inhibition at 1 µM: read-out: % Inhibition MAO-A; for inhibition at 100 µM: read-out: MAO-A % Inhibition", "description": "Two isoforms of MAOs, namely MAO-A and MAO-B, are expressed in CNS, showing different substrate specificity. Consequently, different pharmacological effects can be elicited depending on the inhibited MAO isoform. Therefore, the prepared O^6-aminoalkyl-hispidol analogs were evaluated against both recombinant human MAO-A and MAO-B isoforms following the well-established spectrophotometric method.\n2. Biological evaluations\n2.1. In vitro assay of human monoamine oxidases inhibition\nThe MAO activity was quantified by measuring fluorescence intensity evoked by Amplex red reaction in which Amplex red reacts with hydrogen peroxide from the MAO reaction to produce highly fluorescent resorufin. The test compound in DMSO (final concentration: 1 nM – 10 μM or 10 nM – 100 μM ) and hMAO enzyme (Sigma Aldrich, St. Louis, MO, USA) in 50 mM sodium phosphate buffer (pH 7.4, final protein amount: ~1.25 μg of MAO-A/well and 2.5 μg of MAO-B/well) were loaded on 96-well black plate and incubated for 15 min at 37 °C. Then working solution of 200 μM Amplex Red (Cayman, Ann Arbor, MI, USA), 1 U/mL horseradish peroxidase (Sigma-Aldrich) and 1 mM substrate (p-tyramine for MAO-A, benzylamine for MAO-B, Sigma-Aldrich) in 50 mM sodium phosphate buffer (pH 7.4) was added and incubated for 20 min at 37 °C in the dark. The fluorescence was measured using a microplate reader (SpectraMax®i3, Molecular Device, San Jose, CA, USA) with an excitation at 545 nm and an emission at 590 nm. […]\n(§1) of compounds were determined as the mean ± S.E.M. in triplicate from the dose-response inhibition curves using SigmaPlot® 13.0."}, "recombinant human MAO-B": {"biological_target": "T2, recombinant human MAO-B (Homo sapiens, UniProt P27338)", "T2 construct": "purchased Sigma Aldrich", "T2 sequence (P27338 1-520)": "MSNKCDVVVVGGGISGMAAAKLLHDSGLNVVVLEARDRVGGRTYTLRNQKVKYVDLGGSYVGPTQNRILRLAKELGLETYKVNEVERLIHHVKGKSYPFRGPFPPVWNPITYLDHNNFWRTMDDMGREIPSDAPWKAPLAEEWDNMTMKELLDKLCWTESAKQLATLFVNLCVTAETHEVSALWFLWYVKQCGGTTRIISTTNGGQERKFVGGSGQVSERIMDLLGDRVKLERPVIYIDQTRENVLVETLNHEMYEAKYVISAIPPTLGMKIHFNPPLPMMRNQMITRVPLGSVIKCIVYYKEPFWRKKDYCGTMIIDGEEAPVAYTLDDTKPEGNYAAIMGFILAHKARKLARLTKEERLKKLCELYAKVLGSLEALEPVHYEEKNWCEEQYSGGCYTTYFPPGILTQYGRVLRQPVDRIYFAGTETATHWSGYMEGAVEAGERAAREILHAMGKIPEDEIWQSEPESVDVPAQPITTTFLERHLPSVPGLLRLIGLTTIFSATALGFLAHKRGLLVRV", "assay": "biochemical", "details": "for inhibition at 10 µM: single dose concentration of 10 µM; for inhibition at 10 µM / IC50: ±sem; for IC50: five doses"}, "[1]": {"biological_target": "T3, acetylcholinesterase (AChE) (Mus musculus, UniProt P21836)", "T3 construct": "The supernatant obtained was used as a source of enzyme for; from tissue; host or cells: whole brain of male ICR mice, supernatant of the homogenate", "T3 sequence (P21836 32-614)": "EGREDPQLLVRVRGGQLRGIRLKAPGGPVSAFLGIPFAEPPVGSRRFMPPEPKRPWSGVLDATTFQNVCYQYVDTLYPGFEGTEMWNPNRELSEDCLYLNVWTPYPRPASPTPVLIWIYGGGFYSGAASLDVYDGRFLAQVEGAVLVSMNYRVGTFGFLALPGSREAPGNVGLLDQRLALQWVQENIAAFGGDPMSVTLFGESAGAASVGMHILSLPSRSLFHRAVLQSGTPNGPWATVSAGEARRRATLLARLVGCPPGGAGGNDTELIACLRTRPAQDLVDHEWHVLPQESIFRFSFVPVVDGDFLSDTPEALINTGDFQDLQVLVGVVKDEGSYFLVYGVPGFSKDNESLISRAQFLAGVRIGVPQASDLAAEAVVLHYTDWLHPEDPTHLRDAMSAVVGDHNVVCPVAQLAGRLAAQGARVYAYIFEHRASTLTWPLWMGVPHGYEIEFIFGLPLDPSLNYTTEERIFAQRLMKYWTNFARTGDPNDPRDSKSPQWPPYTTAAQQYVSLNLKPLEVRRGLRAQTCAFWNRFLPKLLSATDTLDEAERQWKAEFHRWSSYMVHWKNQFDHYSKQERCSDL", "assay": "Acetylcholinesterase inhibition assay (Ellman, mouse whole brain homogenate)", "format": "biochemical", "details": "for IC50: ±SD", "description": "as §1\n2.2. In vitro acetylcholinesterase inhibition assay\n(Eyela, Japan) containing 50 volumes of phosphate buffer (pH 8.0, 0.1 M), and then centrifuged at 14,000 rpm for 20 min at 4 °C. The supernatant obtained was used as a source of enzyme for the assay. Each drug was initially dissolved in dimethyl sulfoxide (DMSO) and diluted to various concentrations immediately before use. An aliquot of diluted drug solution was then mixed wit h 640 μL of phosphate buffer (0.1 M, pH 8.0), 25 μL of buffered Ellman’s reagent (10 mM 5,5′- dithio-bis(2-nitrobenzoic acid) and 15 mM sodium bicarbonate), and the enzyme source (100 μL) and pre-incubated at room temperature for 10 min. Then 5 μL of acetylthiocholine iodide solution (75 mM) was added to this mixture and mixed. Absorbance was measured at 410 nm after 10 min for the reaction adding 5 μL of acetylthiocholine iodide solution (75 mM) and to the reaction mixtures (OPTIZEN 2120UV, Mecasys Co. Ltd, Korea)."}, "[2]": {"tested_on": "PGE2 production in LPS-induced BV2 cells", "assay": "Inhibition of LPS-induced production of PGE2 in BV2 cells", "format": "cell-based, murine", "details": "LPS 500 ng/ml", "description": "indicated concentrations of test compounds for 24 h. After replacing the culture media with fresh\n2.3.2. Inhibition of LPS-induced production of PGE2\nThe concentrations of PGE2 in\nSciences, NY, USA) according to the manufacturer’s instructions. […]"}, "[3]": {"tested_on": "scopolamine-induced cognitive deficits", "assay": "Passive avoidance test, scopolamine-induced cognitive deficits", "format": "in vivo", "details": "scopolamine 1 mg/kg i.p., mice"}, "[4]": {"tested_on": "immobility in forced swim test", "assay": "Forced swim test, acute treatment", "details": "1 and 10 mg/kg p.o.; for Immobility time in forced-swim test: versus control group"}, "microglial BV2 cells": {"tested_on": "microglial BV2 cells", "assay": "BV2 cell viability (WST-1 assay)", "details": "up to 10 micromolar, in presence of LPS, 24 h", "description": "2.3. In vitro cellular evaluations\n2.3.1. Cell culture and viability determination\nMurine BV2 microglial cells obtained from the Korean Cell Line Bank (Seoul, Republic of Korea) were cultured in DMEM with 10% FBS, 100 U/ml penicillin, and 100 μg/ml streptomycin at 37°C in a humidified 5% CO2 atmosphere. Cell viability and toxicity were determined by the WST-1 assay (Roche, Mannheim, Germany). Briefly, BV2 cells in sterile plates were incubated with the […]"}, "MAO-A": {"tested_on": "MAO-A", "details": "Figure 1, cited from earlier work"}, "[5]": {"details": "10 mg/kg p.o., donepezil 5 mg/kg p.o. as comparator"}}, "note": "Entries after “also recorded” stand apart in the source; their conditions may differ. Read-outs that look alike come from different tables or passages of the source."}
{"compound": "O=c1ccoc2ccc(OCCCN3CCCCC3)cc12", "note": "[Compound 1]", "values": [{"measurement": "IC50", "setting": "MAO-B; chromone-based compound 1, Figure 1", "value": 7200, "unit": "nM"}, {"measurement": "IC50", "setting": "AChE", "value": 5580, "unit": "nM"}]}
{"compound": "CCN(CC)CCOc1ccc2c(c1)O/C(=C\\c1ccccc1OC)C2=O", "note": "[Compound 3aa]", "values": [{"measurement": "inhibition at 1 µM", "setting": "recombinant human MAO-A; single dose concentration of 1 µM, ±sem, NI = no measured inhibition", "value": "< 0", "unit": "%"}, {"measurement": "inhibition at 100 µM", "setting": "recombinant human MAO-A; single dose concentration of 100 µM, ±sem", "value": "27.2 ± 2.94", "unit": "%"}, {"measurement": "IC50", "setting": "recombinant human MAO-A; ±sem, read-out: MAO-A IC50", "value": "> 100000", "unit": "nM"}, {"measurement": "MAO-B Selectivity Index", "setting": "recombinant human MAO-B; calculated from MAO-A and MAO-B IC50 values", "value": ">104"}, {"measurement": "inhibition at 10 µM", "setting": "recombinant human MAO-B", "value": "91.49 ± 0.27", "unit": "%"}, {"measurement": "IC50", "setting": "recombinant human MAO-B", "value": "960 ± 4", "unit": "nM"}, {"measurement": "AChE potency relative to the reference galantamine", "setting": "[1]; ratio of potency", "value": "~1.8", "unit": "times"}, {"measurement": "IC50", "setting": "[1]", "value": "2670 ± 50", "unit": "nM"}, {"measurement": "LPS-induced PGE2 production in BV2 cells", "setting": "[2]; 10 micromolar dose", "value": "returned to almost normal levels"}, {"measurement": "LPS-induced PGE2 production in BV2 cells", "setting": "[2]; five micromolar concentration", "value": "attrition of the inhibitory effect"}, {"measurement": "Latency in the retention experiment, passive avoidance", "setting": "[3]; 1 mg/kg p.o.", "value": "did not show significant amelioration of cognitive deficits"}, {"measurement": "Latency in the retention experiment, passive avoidance", "setting": "[3]; [5]", "value": "did not show significant amelioration of cognitive deficits"}, {"measurement": "Antidepressant-like effect in forced-swim test", "setting": "[4]", "value": "did not show antidepressant-like effects"}, {"measurement": "Immobility time in forced-swim test", "setting": "[4]", "value": "significantly increased immobility time"}]}
{"compound": "COc1cc(/C=C2\\Oc3cc(OCCN4CCCC4)ccc3C2=O)cc(OC)c1OC", "note": "[Compound 3bc]", "values": [{"measurement": "IC50", "setting": "recombinant human MAO-A", "value": "> 100000", "unit": "nM"}, {"measurement": "inhibition at 1 µM", "setting": "recombinant human MAO-A", "value": "< 0", "unit": "%"}, {"measurement": "inhibition at 100 µM", "setting": "recombinant human MAO-A", "value": "21.4 ± 3.51", "unit": "%"}, {"measurement": "inhibition at 10 µM", "setting": "recombinant human MAO-B", "value": "99.3 ± 0.38", "unit": "%"}, {"measurement": "IC50", "setting": "recombinant human MAO-B", "value": "340 ± 2", "unit": "nM"}, {"measurement": "Cellular viability of microglial BV2 cells", "setting": "microglial BV2 cells", "value": "absence of cytotoxic activity"}, {"measurement": "LPS-induced PGE2 production in BV2 cells", "setting": "[2]; 10 micromolar dose", "value": "returned to almost normal levels"}, {"measurement": "LPS-induced PGE2 production in BV2 cells", "setting": "[2]; five micromolar concentration", "value": "normal PGE2 production level"}, {"measurement": "Latency in the retention experiment, passive avoidance", "setting": "[3]; 1 mg/kg p.o.", "value": "significantly enhanced latency"}, {"measurement": "Latency in the retention experiment, passive avoidance", "setting": "[3]; [5]", "value": "significantly enhanced latency; also recorded: as effective as donepezil"}, {"measurement": "Antidepressant-like effect in forced-swim test", "setting": "[4]", "value": "did not show antidepressant-like effects"}, {"measurement": "Immobility time in forced-swim test", "setting": "[4]", "value": "significantly increased immobility time"}]}
{"compound": "COc1ccc(/C=C2\\Oc3cc(O)ccc3C2=O)c(OC)c1OC", "note": "[Hispidol Analog]", "values": [{"measurement": "IC50", "setting": "MAO-A; ring-B methoxylated hispidol analog", "value": "> 100000", "unit": "nM"}, {"measurement": "IC50", "setting": "MAO-B; ring-B methoxylated hispidol analog, Figure 1", "value": 170, "unit": "nM"}]}
{"compound": "O=C1/C(=C/c2ccc(O)cc2)Oc2cc(O)ccc21", "note": "[Hispidol, hispidol]", "values": [{"measurement": "IC50", "setting": "[1]", "value": 202000, "unit": "nM"}, {"measurement": "IC50", "setting": "MAO-A; reported value for hispidol", "value": 260, "unit": "nM"}, {"measurement": "IC50", "setting": "MAO-B; reported value for hispidol", "value": 2450, "unit": "nM"}]}
